The target in assay [1] is T1, CTX-M-15 (Escherichia coli, UniProt Q9EXV5).
T1 construct: made in house; host or cells: E. coli (DH5 and BL21(DE3) named)
Set-up: method as in PMID 20921316. The settings on record: cited from earlier work.

Assay [2] deals with T1, CTX-M-15. The assay is described as follows: Steady-state kinetics of antibiotic hydrolysis with inhibitor. The class given is biochemical. The settings on record: inhibitor concentration as per IC50. The protocol: (§1) The enzyme kinetics parameters (Km, and kcat) for all six proteins/enzymes in combination with different antibiotics (cefotaxime, imipenem, and meropenem), were calculated. The concentration of inhibitors, D63, D2148, and D2573, was as per the IC50 value (Fig. 5); the kinetic parameters are listed in Table 8.
(§2) The steady-state kinetics of all six proteins were determined using the antibiotics:imipenem (Δε295 = −11,500 M^−1 cm^−1), meropenem (Δε297 = −10,940 M^−1 cm^−1), and cefotaxime (Δε264 = −27,250 M^−1 cm^−1). In this study, the D63, D2148, and D2573 inhibitors were tested. Hydrolysis of β-lactam antibiotics was detected by monitoring the variation in absorbance due to cleavage of the β-lactam ring in 50 mM, pH 7.0, phosphate buffer ([40], [41]). For hydrolysis of substrate (cefotaxime, imipenem, and meropenem) kinetics parameters, Km and kcat were calculated by using Michaelis Menten equations (equations 2 and 3). (2) V =Vmax [S]/Km + [S] (3) kcat = Vmax/E where E and S are the enzyme and substrate concentration, Km is the Michaelis-Mentent constant, kcat is the turnover number, and V and Vmax are the initial and maximum velocity of the hydrolysis, respectively.

Another assay has as its target T2, TEM-1 (Escherichia coli, UniProt P62593).
T2 construct: made in house; host or cells: E. coli (DH5 and BL21(DE3) named; pET-28a)
The assay is described as above. The format is biochemical. Conditions: inhibitor concentration as per IC50. The protocol: as §1, §2

In another assay the target is T3, KPC-2 (Klebsiella pneumoniae, UniProt Q9F663).
T3 construct: made in house; host or cells: E. coli (DH5 and BL21(DE3) named; pET-28a)
T3 sequence (Q9F663 25-293, looked up, species assumed): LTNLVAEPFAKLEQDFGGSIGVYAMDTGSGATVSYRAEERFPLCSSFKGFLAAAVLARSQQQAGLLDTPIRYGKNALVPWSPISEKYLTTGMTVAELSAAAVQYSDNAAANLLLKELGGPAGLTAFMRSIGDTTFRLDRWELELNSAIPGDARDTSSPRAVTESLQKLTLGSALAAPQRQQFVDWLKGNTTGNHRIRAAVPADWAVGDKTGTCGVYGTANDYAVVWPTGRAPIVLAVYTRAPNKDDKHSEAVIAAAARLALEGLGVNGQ
The description is as above. The format is biochemical. The settings on record: inhibitor concentration as per IC50. How it is done: as §1, §2

The next assay has as its target T4, SHV-1 (Klebsiella pneumoniae, UniProt P0AD64).
T4 construct: made in house; host or cells: E. coli (DH5 and BL21(DE3) named; pET-28a)
The description is as above. The format is biochemical. Conditions: inhibitor concentration as per IC50. The protocol: as §1, §2

The next assay addresses T5, Amp-C (Escherichia coli, UniProt P00811).
T5 construct: made in house; host or cells: E. coli (DH5 and BL21(DE3) named; pET-28a)
The assay is described as above. The class given is biochemical. The settings on record: inhibitor concentration as per IC50. How it is done: as §1, §2

Another assay addresses T6, NDM-1 (Klebsiella pneumoniae, UniProt C7C422).
T6 construct: made in house; host or cells: E. coli (DH5 and BL21(DE3) named)
The assay is described as above. The class given is biochemical. The settings on record: inhibitor concentration as per IC50. The protocol: as §1, §2

In the next assay the test system is clinical strain AK-18. The assay is described as follows: MIC, microdilution. The class given is cell-based. How it is done:
(§3) The blaSHV-1, blaTEM-1, blaKPC-2, and blaAmp-C genes were cloned in the pET-28a vector individually, followed by its transformation in Escherichia coli DH5α cells. The MIC values was determined for clinical strains (AK-10, AK-12, AK-18, NP-6, AK-67, and AK-66) and E. coli DH5α cells with selected clones (blaSHV-1, blaTEM-1, blaKPC-2, blaAmp-C, blaCTX-M-15, and blaNDM-1) carrying vectors individually.
(§4) In a series of 2-fold dilutions, E. coli cells were given escalating doses of antibiotics from 0 to 512 μg/mL.
(In general: In broth dilution the organism is exposed to a series of concentrations in liquid medium.)

The subject of a further assay is clinical strain AK-67. Put plainly: MIC, microdilution. The class given is cell-based. The protocol: as §3, §4
The next assay relates to clinical strain AK-66. The assay is described as follows: MIC, microdilution. The class given is cell-based. The protocol: as §3, §4
In a further assay the test system is clinical strain NP-6. Put plainly: MIC, microdilution. The format is cell-based. The protocol:
as §3, §4

A further assay deals with clinical strain AK-10. Put plainly: MIC, microdilution. The class given is cell-based. The protocol: as §3, §4
The test system of assay [3] is E. coli DH5α cells with blaSHV-1 clone. The assay is described as follows: microbe, parasite or virus in culture. The format is cell-based. The settings on record: Escherichia coli. How it is done:
as §3, §4

Assay [4] relates to E. coli DH5α cells with blaNDM-1 clone. The assay is described as follows: microbe, parasite or virus in culture. The format is cell-based. Conditions: Escherichia coli. The protocol: as §3, §4
Assay [5] relates to E. coli DH5α cells with blaKPC-2 clone. The assay is described as follows: microbe, parasite or virus in culture. Conditions: Escherichia coli. The format is cell-based. The protocol:
as §3, §4

Assay [6] deals with E. coli DH5α cells with blaAmp-C clone. Put plainly: microbe, parasite or virus in culture. The format is cell-based. The settings on record: Escherichia coli. The protocol:
as §3, §4

Assay [7] relates to E. coli DH5α cells with blaCTX-M-15 clone. Put plainly: microbe, parasite or virus in culture. The settings on record: Escherichia coli. The format is cell-based. How it is done:
as §3, §4

The subject of assay [8] is E. coli DH5α cells with blaTEM-1 clone. The assay is described as follows: microbe, parasite or virus in culture. The class given is cell-based. The settings on record: Escherichia coli. The protocol:
as §3, §4

[9] abbreviates: clinical strain AK-66, read-out: MIC.

Values after ≈ are worked out from the molar mass of the structure shown. Read-outs that look alike come from different tables or passages of the source.

T1 sequence (Q9EXV5 29-291, species assumed): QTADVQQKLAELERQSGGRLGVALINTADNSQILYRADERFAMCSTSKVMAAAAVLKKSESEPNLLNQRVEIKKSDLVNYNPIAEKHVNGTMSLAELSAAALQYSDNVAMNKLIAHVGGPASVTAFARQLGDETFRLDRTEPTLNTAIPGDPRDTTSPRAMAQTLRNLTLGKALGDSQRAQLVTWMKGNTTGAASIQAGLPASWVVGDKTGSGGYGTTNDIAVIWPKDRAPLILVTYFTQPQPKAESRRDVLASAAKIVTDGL
T5 sequence (P00811 20-377): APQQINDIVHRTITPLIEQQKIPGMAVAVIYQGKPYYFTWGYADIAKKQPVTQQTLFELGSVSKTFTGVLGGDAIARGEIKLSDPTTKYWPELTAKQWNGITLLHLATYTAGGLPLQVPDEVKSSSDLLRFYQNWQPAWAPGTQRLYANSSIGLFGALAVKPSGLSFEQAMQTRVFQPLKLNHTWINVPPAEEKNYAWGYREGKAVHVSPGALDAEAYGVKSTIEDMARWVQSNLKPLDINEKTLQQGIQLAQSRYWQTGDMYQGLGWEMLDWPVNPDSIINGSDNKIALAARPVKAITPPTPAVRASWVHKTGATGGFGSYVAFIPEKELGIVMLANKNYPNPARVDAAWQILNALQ
T2 sequence (P62593 24-286 limits assumed): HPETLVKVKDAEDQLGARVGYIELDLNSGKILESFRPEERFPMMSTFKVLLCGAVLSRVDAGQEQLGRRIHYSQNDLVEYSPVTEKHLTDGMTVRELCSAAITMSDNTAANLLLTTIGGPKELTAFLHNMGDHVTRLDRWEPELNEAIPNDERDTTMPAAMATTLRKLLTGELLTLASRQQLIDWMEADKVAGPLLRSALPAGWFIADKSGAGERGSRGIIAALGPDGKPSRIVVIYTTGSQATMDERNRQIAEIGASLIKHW
T4 sequence (P0AD64 22-286): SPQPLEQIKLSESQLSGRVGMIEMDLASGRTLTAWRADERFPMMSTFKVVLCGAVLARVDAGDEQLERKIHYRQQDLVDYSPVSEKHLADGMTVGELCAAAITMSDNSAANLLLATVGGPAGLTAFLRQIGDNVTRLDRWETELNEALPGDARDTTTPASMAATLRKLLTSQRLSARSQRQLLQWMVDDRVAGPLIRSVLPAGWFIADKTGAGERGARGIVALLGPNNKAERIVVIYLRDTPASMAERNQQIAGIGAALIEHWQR
T6 sequence (C7C422 29-270, looked up, species assumed): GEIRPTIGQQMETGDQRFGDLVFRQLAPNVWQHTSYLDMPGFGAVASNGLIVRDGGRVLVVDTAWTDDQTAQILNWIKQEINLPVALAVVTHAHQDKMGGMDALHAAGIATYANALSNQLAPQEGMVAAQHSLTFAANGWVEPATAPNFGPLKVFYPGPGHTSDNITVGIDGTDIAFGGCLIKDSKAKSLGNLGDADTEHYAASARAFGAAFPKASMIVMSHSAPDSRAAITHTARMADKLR

What is called IC50 is the concentration that gives 50% inhibition. As to `NC(=O)[C@@H]1CC[C@@H]2CN1C(=O)N2OS(=O)(=O)O` [Avibactam, reference compound], the IC50 on CTX-M-15 [1] was 5 nM. Further, the “Km or Ki” value on CTX-M-15 [2] (cefotaxime) is 2047 μΜ; at CTX-M-15 [2] (imipenem) it was 2,918 μΜ; at CTX-M-15 [2] (meropenem), 745.5 μΜ; on TEM-1 (cefotaxime), 1,558 μΜ; at TEM-1 (imipenem), 2,918 μΜ; at TEM-1 (meropenem), 12,315 μΜ. Also, the “Km or Ki” value at KPC-2 (cefotaxime) was 1299 μΜ; on KPC-2 (imipenem) it was 2,637 μΜ; on KPC-2 (meropenem), 1,740 μΜ; on SHV-1 (cefotaxime), 1,201 μΜ; on SHV-1 (imipenem) it was 835.4 μΜ; at SHV-1 (meropenem), 532 μΜ. In addition, the “Km or Ki” value is listed as 1,199 μΜ on Amp-C (cefotaxime); 321 μΜ on Amp-C (imipenem); 1,442 μΜ on Amp-C (meropenem); 212.2 μΜ at NDM-1 (cefotaxime); 615.5 μΜ at NDM-1 (imipenem); 440.9 μΜ at NDM-1 (meropenem). Further, the kcat on CTX-M-15 [2] (cefotaxime) amounted to 1.858 S^−1; at CTX-M-15 [2] (imipenem) it was 0.4807 S^−1; at CTX-M-15 [2] (meropenem), 1.566 S^−1; at TEM-1 (cefotaxime), 1.339 S^−1; on TEM-1 (imipenem) it was 1.107 S^−1; at TEM-1 (meropenem), 5.916 S^−1. Further, the kcat amounted to 0.549 S^−1 on KPC-2 (cefotaxime); 1.499 S^−1 at KPC-2 (imipenem); 0.72 S^−1 at KPC-2 (meropenem); 0.6119 S^−1 on SHV-1 (cefotaxime); 0.5531 S^−1 on SHV-1 (imipenem); 0.4803 S^−1 on SHV-1 (meropenem). Further, the kcat on Amp-C (cefotaxime) amounted to 1.417 S^−1; at Amp-C (imipenem) it was 0.861 S^−1; on Amp-C (meropenem), 2.213 S^−1; at NDM-1 (cefotaxime), 1.036 S^−1; on NDM-1 (imipenem) it was 2.194 S^−1; on NDM-1 (meropenem), 1.268 S^−1.

For the compound `CO/N=C(\C(=O)N[C@@H]1C(=O)N2C(C(=O)O)=C(COC(C)=O)CS[C@H]12)c1csc(N)n1` [Cefotaxime], the MIC in the assay on clinical strain AK-18 came to 32 µg/mL (≈ 70.3 µM); against clinical strain AK-67, 512 µg/mL (≈ 1120 µM); against clinical strain AK-66, 512 µg/mL (≈ 1120 µM); with clinical strain NP-6, 16 µg/mL (≈ 35.1 µM); against clinical strain AK-10, 1020 µg/mL (≈ 2250 µM); in [3] it was 4 µg/mL (≈ 8.78 µM). Also, the MIC in assay [4] was found to be 256 µg/mL (≈ 562 µM); in assay [5], 2 µg/mL (≈ 4.39 µM); in assay [6], 2 µg/mL (≈ 4.39 µM); in assay [7], 512 µg/mL (≈ 1120 µM); in [8] it was 2 µg/mL (≈ 4.39 µM).

As to `CO[C@@]1(NC(=O)Cc2cccs2)C(=O)N2C(C(=O)O)=C(COC(N)=O)CS[C@@H]21` [Cefoxitin], the MIC turned out to be 64 µg/mL (≈ 150 µM) with clinical strain AK-66 (setting [9]); 64 µg/mL (≈ 150 µM) in the assay with clinical strain NP-6; 32 µg/mL (≈ 74.9 µM) in [3]; 32 µg/mL (≈ 74.9 µM) in assay [4]; 32 µg/mL (≈ 74.9 µM) in assay [5]; 32 µg/mL (≈ 74.9 µM) in assay [6]. Further, the MIC in [7] and in [8] was 32 µg/mL (≈ 74.9 µM) in each case.

On to `C[C@@H](O)[C@H]1C(=O)N2C(C(=O)O)=C(SCCN=CN)C[C@H]12` [Imipenem], for which the MIC with clinical strain AK-66 (setting [9]) came to 1020 µg/mL (≈ 3420 µM); in the assay on clinical strain NP-6, 64 µg/mL (≈ 214 µM); with clinical strain AK-10, 128 µg/mL (≈ 428 µM); in assay [3], 16 µg/mL (≈ 53.4 µM); in [4], 512 µg/mL (≈ 1710 µM); in [5], 16 µg/mL (≈ 53.4 µM). Moreover, the MIC in assay [6] was determined as 16 µg/mL (≈ 53.4 µM); in assay [7], 32 µg/mL (≈ 107 µM); in assay [8], 16 µg/mL (≈ 53.4 µM).

Turning to `C[C@@H](O)[C@H]1C(=O)N2C(C(=O)O)=C(S[C@@H]3CN[C@H](C(=O)N(C)C)C3)[C@H](C)[C@H]12` [Meropenem], the MIC was 32 µg/mL (≈ 83.4 µM) with clinical strain AK-18; 1020 µg/mL (≈ 2670 µM) in the assay with clinical strain AK-66 (setting [9]); 16 µg/mL (≈ 41.7 µM) with clinical strain NP-6; 32 µg/mL (≈ 83.4 µM) with clinical strain AK-10; 2 µg/mL (≈ 5.22 µM) in assay [3]; 1020 µg/mL (≈ 2670 µM) in assay [4]. Moreover, the MIC in assay [5] was determined as 2 µg/mL (≈ 5.22 µM); in [6] it was 4 µg/mL (≈ 10.4 µM); in assay [7], 2 µg/mL (≈ 5.22 µM); in assay [8] it was 2 µg/mL (≈ 5.22 µM).

The values above are taken from paper PMC9603770, “Broad-Spectrum Inhibitors against Class A, B, and C Type β-Lactamases to Block the Hydrolysis against Antibiotics: Kinetics and Structural Characterization” (Microbiology Spectrum, 2022).
